Broadly, the Cmax is the maximum level reached in the sampled fluid or tissue.

The subject of series [1] is human pluripotent stem cells. The arrangement: method as in PMID 24154490. The settings on record: cited from earlier work.
The test system of series [2] is µP-hPSC colonies (H9) under mesoendoderm induction. Nature of the series: µP-hPST: mesoendoderm pattern disruption in µP-hPSC colonies and two-step teratogen classification. The settings on record: for Mesoendoderm pattern disruption seen in T fluorescent images: 3 days of compound exposure, in words; for Teratogenicity in µP-hPST / Teratogenicity in µP-hPST (in words): two-step classification rule.

The conditions of series [3]: cited from earlier work.
Another series concerns hPSC. The arrangement: method as in PMID 24123775. The settings on record: cited from earlier work.
The conditions of series [4]: cited from earlier work; for In vivo teratogenicity (in words): Supplementary Tables S2, S3; for In vivo teratogenicity: Table 1, known teratogenicity.
The test system of series [5] is µP-hPSC colonies (H9) under mesoendoderm induction. The arrangement: method as in earlier work. The settings on record: compounds tested previously; cited from earlier work.
The test system of series [6] is adult human dermal fibroblasts (aHDF). The experiment in a line: Cytotoxicity assay (MTS), general cytotoxicity. In kind it is cell-based. The settings on record: aHDF cells, 3 days, 25% inhibitory concentration. Here is the method:
(§1) A set of 30 compounds of known teratogenicity was selected to establish and validate the µP-hPST (Table 1). The compounds include equal number of non-teratogens and teratogens, and differ in chemical property and therapeutic usage. Before tested in the µP-hPSC colonies, the cytotoxicity profile of each compound was acquired. Two cell lines, hPSC line H9 and adult human dermal fibroblast line aHDF, were tested to represent embryonic cytotoxicity and general cytotoxicity of the compound respectively (Supplementary Figs S1, S2). The IC25 values, which were the 25% inhibitory concentrations, were calculated as the highest non-cytotoxic concentrations of the compound (Table 2, Fig. 1).
(§2) Human embryonic cell line H9 (WiCell Research Institute, Inc) and adult human dermal fibroblast (aHDF, Lonza) were cultured as previously described. Briefly, H9 cells were cultured in tissue culture plates coated with Matrigel^TM (354277, BD Biosciences) in mTeSR^TM1 medium (05850, StemCell^TM Technologies). Dispase (07923, StemCell^TM Technologies) treatment and mechanical scraping were applied during normal subculture. The aHDF cells was cultured in DMEM medium (10569-010, Gibco), supplemented with 10% FBS (SV30160.03, Thermo Scientific Hyclone) and 1% Pen-Strep (09367-34, Nacalai Tesque). Cells were subcultured every 5–6 days using 0.25% Trypsion-EDTA (25200-114, Gibco) to detach the cells.
(§3) The adverse effect of test compounds on cell proliferation and viability was detected using CellTiter 96® AQueous One Solution Cell Proliferation Assay (MTS, G3580, Promega). 10,000 H9 cells or 500 aHDF cells were seeded in 96-well tissue culture plates. For H9 cells, Matrigel^TM was coated before seeding. For each compound, 8 concentrations from serial 5-fold dilutions were tested besides the vehicle controls. Cells were cultured for 3 days with medium half change every day before cell viability was measured. Each drug was tested in three independent runs and its IC25 values (inhibitory concentrations which can cause 25% of reduction in cell number) were acquired by logistic regression using OriginPro 9.

Series [7] has as its system human embryonic cell line H9. Nature of the series: Cytotoxicity assay (MTS), embryonic cytotoxicity. The series is classed as cell-based. The settings on record: H9 cells, 3 days, 25% inhibitory concentration. As for the experimental part: as §1, §2, §3
Series [8] deals with mouse embryonic stem cell. The arrangement: method as in PMID 19678733. The settings on record: cited from earlier work.
For series [9], the system named is µP-hPSC colonies (H9) under mesoendoderm induction.
[10] abbreviates: human plasma, ref U.S. FDA website, EMA website or published journals (Supplementary Table S1).

The structures appear in SMILES notation. In brackets after ≈: the same amount, converted by molar mass. Where two headings read alike, the source gives them in different places.

With `O=c1[nH]cc(F)c(=O)[nH]1` [5-Fluorouracil], the “Teratogenicity in other in vitro assays” value in series [1] is “TER[6], [7]”. In addition, in series [2], the “Mesoendoderm pattern disruption seen in T fluorescent images” value (from here on “Mesoendoderm pattern disruption seen”) is “promote both cell differentiation and migration”; the “Teratogenicity in µP-hPST” value is reported as “TER”. The Cmax in series [3] (setting [10]) is 48400 ng/mL. Moreover, the “Teratogenicity in other in vitro assays” value in the series on hPSC was “TER[6], [7]”. Besides, in series [4], the “In vivo teratogenicity (in words)” value was “Teratogen” and the In vivo teratogenicity result is “TER”.

Take `CC(C)(S)[C@@H](N)C(=O)O` [D-penicillamine]: in [5], the LDC is 200 µg/mL. For the same compound, in [2], the “Teratogenicity in µP-hPST (in words)” value was “Teratogen”. Besides, the highest concentration (Cmax) in [3] (compounds tested previously) was 200000 ng/mL. The “In vivo teratogenicity (in words)” value in [4] is recorded as “Teratogen”.

On to `CC/C(=C(/CC)c1ccc(O)cc1)c1ccc(O)cc1` [Diethylstilbestrol], for which, in series [6], the IC25aHDF was 6.1 µg/mL (≈ 22.7 µM). In addition, in series [7], the IC25H9 stood at 8.8 µg/mL (≈ 32.8 µM). The “Teratogenicity in other in vitro assays” value in series [1] was “TER[7]”. In series [2], the “Mesoendoderm pattern disruption seen” value is given as “promote cell migration”, the “Teratogenicity in µP-hPST” value is recorded as “NON” and the “Teratogenicity in µP-hPST (in words)” value was “misclassified as a non-teratogen”. The Cmax in series [3] (setting [10]) is 5.6 ng/mL. Besides, in series [4], the “In vivo teratogenicity (in words)” value is on record as “Teratogen” and the In vivo teratogenicity entry is “TER”.

With `COc1cccc2c1C(=O)c1c(O)c3c(c(O)c1C2=O)C[C@@](O)(C(=O)CO)C[C@@H]3O[C@H]1C[C@H](N)[C@H](O)[C@H](C)O1` [Doxorubicin], the IC25aHDF in series [6] (listed as Doxirubicin) was less than 1 µg/mL. Further, the IC25H9 in [7] was 0.0002 µg/mL (≈ 0.000368 µM); in series [7] (listed as Doxirubicin) it was less than 1 µg/mL. Moreover, the “Teratogenicity in other in vitro assays” value in [1] is “TER[7]”. Further, the “Teratogenicity in µP-hPST” value in series [2] is listed as “TER”. Besides, the Cmax in [3] (setting [10]) was 370 ng/mL. In series [4], the “In vivo teratogenicity (in words)” value is on record as “Teratogen”. Moreover, the In vivo teratogenicity result in [4] is on record as “TER”.

In [6], `COc1ccc2nc([S@@+]([O-])Cc3ncc(C)c(OC)c3C)[nH]c2c1` [Esomeprazole] returned an IC25aHDF of 42.1 µg/mL (≈ 122 µM). In series [7], this compound displayed an IC25H9 of 38.9 µg/mL (≈ 113 µM). The “Teratogenicity in other in vitro assays” value in series [1] was “NON[7]”. For the same compound, the “Teratogenicity in µP-hPST” value in [2] is recorded as “NON”. In addition, in [3] (setting [10]), the Cmax was 1620 ng/mL. The In vivo teratogenicity entry in [4] is recorded as “NON”.

In series [6], `NS(=O)(=O)c1cc(C(=O)O)c(NCc2ccco2)cc1Cl` [Furosemide] registered an IC25aHDF of 30 µg/mL (≈ 90.7 µM). The compound further displayed an IC25H9 in series [7] of 362 µg/mL (≈ 1090 µM). In series [2], the “Teratogenicity in µP-hPST” value was “TER” and the “Teratogenicity in µP-hPST (in words)” value was “teratogen”. For the same compound, in series [4], the “In vivo teratogenicity (in words)” value is on record as “Teratogen” and the In vivo teratogenicity result is “TER”. For the same compound, in series [8], the “Classification in mEST (in words)” value is listed as “misclassified” and the “Teratogenicity in other in vitro assays” value was “NON[28]”.

`C[C@](N)(Cc1ccc(O)c(O)c1)C(=O)O` [Methyldopa] registered an IC25aHDF in [6] of 15.9 µg/mL (≈ 75.3 µM). Also, in [7], the IC25H9 was found to be 23.2 µg/mL (≈ 110 µM). Further, the “Teratogenicity in other in vitro assays” value in series [1] was “NON[7]”. Further, the “Teratogenicity in µP-hPST” value in [2] is recorded as “NON”. For the same compound, the Cmax in series [3] (setting [10]) was 7500 ng/mL. Also, in series [4], the In vivo teratogenicity result is given as “NON”.

As for `CC1=C(/C=C/C(C)=C/C=C/C(C)=C/C(=O)O)C(C)(C)CCC1` [Retinoid acid], the LDC in series [5] was 0.00036 µg/mL. Besides, in [3] (compounds tested previously), the Cmax was 347 ng/mL. Besides, in series [9], the “Step1: Is LDC <= IC25 aHDF & IC25H9?” value is listed as “Y” and the “Teratogenicity in µP-hPST (in words)” value is on record as “Teratogen”. The “In vivo teratogenicity (in words)” value in [4] is reported as “Teratogen”.

On to `CCN(CC)CCNC(=O)c1c(C)[nH]c(/C=C2\C(=O)Nc3ccc(F)cc32)c1C` [Sunitinib], for which, in series [7], the IC25H9 is 0.89 µg/mL (≈ 2.23 µM). The “Teratogenicity in other in vitro assays” value in series [1] was “TER[7]”. Moreover, in series [2], the “Mesoendoderm pattern disruption seen” value is given as “promote mesoendoderm differentiation while decrease collective cell migration” and the “Teratogenicity in µP-hPST” value is given as “TER”. The Cmax in series [3] (setting [10]) was 30 ng/mL. Moreover, in series [4], the “In vivo teratogenicity (in words)” value is “Teratogen” and the In vivo teratogenicity entry is listed as “TER”.

As to `O=C1CCC(N2C(=O)c3ccccc3C2=O)C(=O)N1` (centres unmarked) [Thalidomide], the LDC in [5] was 30 µM. The “Teratogenicity in µP-hPST (in words)” value in [2] is “Teratogen”. Further, in series [3] (compounds tested previously, read-out: Cmax), the Cmax was 10.9 µM. In addition, the “In vivo teratogenicity (in words)” value in series [4] is listed as “Teratogen”.

For `Cc1ncc(C[n+]2csc(CCO)c2C)c(N)n1` [Thiamine], in series [6], the IC25aHDF is greater than 1000 µg/mL. The IC25H9 in series [7] is greater than 1000 µg/mL. Besides, in series [2], the “Mesoendoderm pattern disruption seen” value is given as “slow down or prevent mesoendoderm cell migration” and the “Teratogenicity in µP-hPST” value is “NON”. For the same compound, the Cmax in [3] (setting [10]) is 110 ng/mL. For the same compound, in the series with hPSC, the “Teratogenicity in other in vitro assays” value was “NON[6]”. Moreover, in series [4], the “In vivo teratogenicity (in words)” value was “Non-teratogen” and the In vivo teratogenicity result is “NON”.

With `CCCC(CCC)C(=O)O` [Valproic acid], the LDC in series [5] was 100 µM. The “Teratogenicity in µP-hPST (in words)” value in series [2] is given as “Teratogen”. Further, the “In vivo teratogenicity (in words)” value in series [4] is “Teratogen”.

Compound `COc1cc2c(Nc3ccc(Br)cc3F)ncnc2cc1OCC1CCN(C)CC1` [Vandetanib] had an IC25aHDF in series [6] of 1.1 µg/mL (≈ 2.31 µM). Moreover, the IC25H9 in [7] came to 0.3 µg/mL (≈ 0.631 µM). Moreover, in series [1], the “Teratogenicity in other in vitro assays” value is “TER[7]”. Besides, in series [2], the “Teratogenicity in µP-hPST” value is recorded as “TER”. For the same compound, the Cmax in series [3] (setting [10]) is 400 ng/mL. In [4], the “In vivo teratogenicity (in words)” value is on record as “Teratogen” and the In vivo teratogenicity entry is given as “TER”.

With `O=C1Cc2cc(CCN3CCN(c4nsc5ccccc45)CC3)c(Cl)cc2N1` [Ziprasidone], the IC25aHDF in series [6] was 2.7 µg/mL (≈ 6.54 µM). In addition, the IC25H9 in series [7] is 14.4 µg/mL (≈ 34.9 µM). Moreover, the “Teratogenicity in other in vitro assays” value in series [1] is “TER[7]”. Also, the “Teratogenicity in µP-hPST” value in [2] is “TER”. In addition, in [3] (setting [10]), the Cmax is 200 ng/mL. Moreover, in [4], the “In vivo teratogenicity (in words)” value is reported as “Teratogen” and the In vivo teratogenicity entry is listed as “TER”.

Source of the values: paper PMC5561212, “In Vitro Micropatterned Human Pluripotent Stem Cell Test (µP-hPST) for Morphometric-Based Teratogen Screening” (Scientific Reports, 2017).
